The target of assay [1] is T1, hEP2 (Homo sapiens, UniProt P43116).
T1 construct: expressed in transfected cells; host or cells: HEK293
Description: hEP2 cAMP assay. The note with it: HEK293 cells overexpressing hEP2; PGE2 agonist 400 pM; graded per Table 21; read-out: IC50 (nM) EP2 cAMP. It counts as cell-based. In short, it runs like this: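 HEK293 cells overexpressing hEP2, serum-starved 4 h, then 1,000 cells/well treated with compound (10 μM–0.001 nM) plus 400 pM PGE2 (about EC50-80) in HBSS buffer with 0.5 mM IBMX for 12 min at room temperature. cAMP measured by TR-FRET (665/615 nm) as % of DMSO control; IC50 from 4-parameter fit, median of repeats.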
In general terms: cAMP levels reflect the balance of adenylyl cyclase and phosphodiesterase activity.

Assay [2] concerns the target T2, hEP4 (Homo sapiens, UniProt P35408).
T2 construct: expressed in transfected cells; host or cells: HEK293
Nature of the assay: hEP4 cAMP assay. Type of assay: cell-based. The note with it: HEK293 cells overexpressing hEP4; PGE2 agonist 20 nM; graded per Table 21; read-out: IC50 (nM) EP4 cAMP. Put shortly:
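HEK293 cells overexpressing hEP4, starved 4 h, were treated with compound (10 μM-0.001 nM) plus 20 nM PGE2 (EC50-80) in HBSS buffer with 0.5 mM IBMX for 18.5 min at room temperature. cAMP was read by TR-FRET (665/615 nm) as % of DMSO control; IC50 from 4-parameter fit, median of multiple experiments.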

In patent US20230365582A1, “NOVEL COMPOUNDS HAVING INHIBITORY ACTIVITY ON PROSTAGLANDIN E2 RECEPTOR AND USES THEREOF” (KANAPH THERAPEUTICS INC., priority 2020, published 2023) one finds IC50 data, which are given here for 26 molecules.

As usually defined, the IC50 is the concentration needed to halve the response being measured.

T1 sequence (P43116 whole entry): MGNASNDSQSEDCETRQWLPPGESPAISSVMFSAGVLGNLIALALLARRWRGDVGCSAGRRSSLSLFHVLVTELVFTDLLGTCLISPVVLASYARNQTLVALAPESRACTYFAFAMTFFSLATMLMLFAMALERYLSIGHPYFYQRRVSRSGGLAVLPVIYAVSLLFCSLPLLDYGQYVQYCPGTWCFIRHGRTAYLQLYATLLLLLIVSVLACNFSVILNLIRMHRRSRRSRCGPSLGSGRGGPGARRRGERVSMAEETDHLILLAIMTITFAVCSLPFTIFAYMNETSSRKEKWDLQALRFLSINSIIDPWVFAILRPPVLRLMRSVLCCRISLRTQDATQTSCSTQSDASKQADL
T2 sequence (P35408 whole entry): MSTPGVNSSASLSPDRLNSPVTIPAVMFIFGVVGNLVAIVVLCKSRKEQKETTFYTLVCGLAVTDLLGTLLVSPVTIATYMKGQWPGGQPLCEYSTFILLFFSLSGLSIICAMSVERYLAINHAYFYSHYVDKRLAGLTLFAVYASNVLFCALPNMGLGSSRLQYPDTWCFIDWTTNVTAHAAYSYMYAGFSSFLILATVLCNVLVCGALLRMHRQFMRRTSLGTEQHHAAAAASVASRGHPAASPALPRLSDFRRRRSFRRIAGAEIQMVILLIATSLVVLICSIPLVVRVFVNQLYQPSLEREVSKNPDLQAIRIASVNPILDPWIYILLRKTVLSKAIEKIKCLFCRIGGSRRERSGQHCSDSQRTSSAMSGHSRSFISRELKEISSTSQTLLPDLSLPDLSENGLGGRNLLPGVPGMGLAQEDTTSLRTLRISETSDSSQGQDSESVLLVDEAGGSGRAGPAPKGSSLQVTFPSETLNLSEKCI

Regarding `Cc1sc2ccn(Cc3ccc(-c4ccccc4)cc3)c2c1C(=O)NC1CC2(C1)CC(C(=O)O)C2` (stereo not shown) [Example 80, 6-(4-([1,1′-biphenyl]-4-ylmethyl)-2-methyl-4H-thieno[3,2-b]pyrrole-3-carboxamido)spiro[3.3]heptane-2-carboxylic acid], the results for the concentration for half-maximal inhibition (IC50) in assay [1] and in assay [2] were 500 to 5000 nM and < 500 nM, respectively.
The matching figures for `Cc1cn(Cc2ccc(-c3ccccc3)cc2)c2c(C(=O)NC3CC4(C3)CC(C(=O)O)C4)csc12` (stereo not shown) [Example 81, 6-(4-([1,1′-biphenyl]-4-ylmethyl)-6-methyl-4H-thieno[3,2-b]pyrrole-3-carboxamido)spiro[3.3]heptane-2-carboxylic acid]: 500 to 5000 nM and > 10000 nM.
On the same counts, the results for `O=C(NC1CC2(C1)CC(C(=O)O)C2)c1c(Cl)sc2ccn(Cc3ccc(-c4ccccc4)cc3)c12` (stereo not shown) [Example 82, 6-(4-([1,1′-biphenyl]-4-ylmethyl)-2-chloro-4H-thieno[3,2-b]pyrrole-3-carboxamido)spiro[3.3]heptane-2-carboxylic acid] are 500 to 5000 nM and < 500 nM.
The matching figures for `O=C(N[C@H]1C[C@H](C(=O)O)C1)c1csc2ccn(Cc3ccc(-c4ccccc4)cc3)c12` [Example 83, (1R,3R)-3-(4-([1,1′-biphenyl]-4-ylmethyl)-4H-thieno[3,2-b]pyrrole-3-carboxamido)cyclobutane-1-carboxylic acid]: 500 to 5000 nM and > 10000 nM.
As for `O=C(N[C@H]1C[C@@H](C(=O)O)C1)c1csc2ccn(Cc3ccc(-c4ccccc4)cc3)c12` [Example 84, (1S,3S)-3-(4-([1,1′-biphenyl]-4-ylmethyl)-4H-thieno[3,2-b]pyrrole-3-carboxamido)cyclobutane-1-carboxylic acid], the IC50 in assay [1] and in assay [2] was > 10000 nM throughout.
Regarding `COc1cccc(-c2ccc(Cn3ccc4scc(C(=O)NC5CC6(C5)CC(C(=O)O)C6)c43)cc2)c1` (stereo not shown) [Example 85, 6-(4-((3′-methoxy-[1,1′-biphenyl]-4-yl)methyl)-4H-thieno[3,2-b]pyrrole-3-carboxamido)spiro[3.3]heptane-2-carboxylic acid], the IC50 in assay [1] and in assay [2] was < 500 nM each time.
As for `O=C(NC12CCC(C(=O)O)(CC1)CC2)c1csc2ccn(Cc3ccc(-c4ccccc4)cc3)c12` [Example 88, 4-(4-([1,1′-biphenyl]-4-ylmethyl)-4H-thieno[3,2-b]pyrrole-3-carboxamido)bicyclo[2.2.2]octane-1-carboxylic acid], the IC50 fell in the range of 500 to 5000 nM in assay [1] and 5000 to 10000 nM in assay [2].
The matching figures for `COc1cc(OC)cc(-c2ccc(Cn3ccc4scc(C(=O)NC5CC6(C5)CC(C(=O)O)C6)c43)cc2)c1` (stereo not shown) [Example 89, 6-(4-((3′,5′-dimethoxy-[1,1′-biphenyl]-4-yl)methyl)-4H-thieno[3,2-b]pyrrole-3-carboxamido)spiro[3.3]heptane-2-carboxylic acid]: < 500 nM and < 500 nM.
On the same counts, the results for `O=C(NC1CC2(C1)CC(C(=O)O)C2)c1csc2ccn(Cc3ccc(C(F)(F)F)cc3)c12` (stereo not shown) [Example 90, 6-(4-(4-(trifluoromethyl)benzyl)-4H-thieno[3,2-b]pyrrole-3-carboxamido)spiro[3.3]heptane-2-carboxylic acid] are 500 to 5000 nM and 500 to 5000 nM.
On the same counts, the results for `O=C(NC1CC2(C1)CC(C(=O)O)C2)c1csc2ccn(CCc3ccc(-c4ccccc4)cc3)c12` (stereo not shown) [Example 91, 6-(4-(2-([1,1′-biphenyl]-4-yl)ethyl)-4H-thieno[3,2-b]pyrrole-3-carboxamido)spiro[3.3]heptane-2-carboxylic acid] are > 10000 nM and > 10000 nM.
With `O=C(NC1CC2(C1)CC(C(=O)O)C2)c1csc2ccn(Cc3ccc(-c4cccc(F)c4)cc3)c12` (stereo not shown) [Example 92, 6-(4-((3′-fluoro-[1,1′-biphenyl]-4-yl)methyl)-4H-thieno[3,2-b]pyrrole-3-carboxamido)spiro[3.3]heptane-2-carboxylic acid], the IC50 in assay [1] and in assay [2] was < 500 nM each time.
Turning to `O=C(NC1CC2(C1)CC(C(=O)O)C2)c1csc2ccn(Cc3ccc(-c4ncccn4)cc3)c12` (stereo not shown) [Example 93, 6-(4-(4-(pyrimidin-2-yl)benzyl)-4H-thieno[3,2-b]pyrrole-3-carboxamido)spiro[3.3]heptane-2-carboxylic acid], the results for the concentration for half-maximal inhibition (IC50) in assay [1] and in assay [2] were 5000 to 10000 nM and 500 to 5000 nM, respectively.
Consider `O=C(NC1CC2(C1)CC(C(=O)O)C2)c1csc2ccn(Cc3cnc(-c4ccccc4)nc3)c12` (stereo not shown) [Example 94, 6-(4-((2-phenylpyrimidin-5-yl)methyl)-4H-thieno[3,2-b]pyrrole-3-carboxamido)spiro[3.3]heptane-2-carboxylic acid], for which the 50% inhibitory concentration (IC50) was 500 to 5000 nM in assay [1] and < 500 nM in assay [2].
Turning to `COc1cc(F)cc(-c2ccc(Cn3ccc4sc(C)c(C(=O)NC5CC6(C5)CC(C(=O)O)C6)c43)cc2)c1` (stereo not shown) [Example 95], the results for the IC50 in assay [1] and in assay [2] were 500 to 5000 nM and < 500 nM, respectively.
The matching figures for `Cc1sc2ccn(CC#Cc3ccccc3)c2c1C(=O)NC1CC2(C1)CC(C(=O)O)C2` (stereo not shown) [Example 96, 6-(2-methyl-4-(3-phenylprop-2-yn-1-yl)-4H-thieno[3,2-b]pyrrole-3-carboxamido)spiro[3.3]heptane-2-carboxylic acid]: > 10000 nM and 500 to 5000 nM.
The matching figures for `COc1cc(F)cc(-c2ccc(Cn3ccc4scc(C(=O)NC5CC6(C5)CC(C(=O)O)C6)c43)cc2)c1` (stereo not shown) [Example 97, 6-4-((3′-fluoro-5′-methoxy[1,1′-biphenyl-4-yl)methyl)-4H-thieno[3,2-b]pyrrole-3-carboxamido)spiro[3.3]heptane-2-carboxylic acid]: < 500 nM and < 500 nM.
The matching figures for `O=C(NC1CC2(C1)CC(C(=O)O)C2)c1csc2ccn(CC#Cc3ccccc3)c12` (stereo not shown) [Example 98, 6-(2-4-(3-phenylprop-2-yn-1-yl)-4H-thieno[3,2-b]pyrrole-3-carboxamido)spiro[3.3]heptane-2-carboxylic acid]: > 10000 nM and 500 to 5000 nM.
As to `O=C(NC1CC2(C1)CC(C(=O)O)C2)c1csc2ccn(Cc3ccc(-c4cccnc4)cc3)c12` (stereo not shown) [Example 99, 6-(4-(4-(pyridin-3-yl)benzyl)-4H-thieno[3,2-b]pyrrole-3-carboxamido)spiro[3.3]heptane-2-carboxylic acid], the IC50 was > 10000 nM in assay [1] and < 500 nM in assay [2].
The matching figures for `O=C(NC1CC2(C1)CC(C(=O)O)C2)c1csc2ccn(Cc3ccc(-c4cncc(F)c4)cc3)c12` (stereo not shown) [Example 100, 6-(4-(4-(5-fluoropyridin-3-yl)benzyl)-4H-thieno[3,2-b]pyrrole-3-carboxamido)spiro[3.3]heptane-2-carboxylic acid]: 500 to 5000 nM and < 500 nM.
The matching figures for `COc1cncc(-c2ccc(Cn3ccc4scc(C(=O)NC5CC6(C5)CC(C(=O)O)C6)c43)cc2)c1` (stereo not shown) [Example 101, 6-(4-(4-(5-methoxypyridin-3-yl)benzyl)-4H-thieno[3,2-b]pyrrole-3-carboxamido)spiro[3.3]heptane-2-carboxylic acid]: 500 to 5000 nM and < 500 nM.
The matching figures for `Cn1cc(-c2ccc(Cn3ccc4scc(C(=O)NC5CC6(C5)CC(C(=O)O)C6)c43)cc2)cn1` (stereo not shown) [Example 102, 6-(4-(4-(1-methyl-1H-pyrazol-4-yl)benzyl)-4H-thieno[3,2-b]pyrrole-3-carboxamido)spiro[3.3]heptane-2-carboxylic acid]: > 10000 nM and < 500 nM.
Take `O=C(NC1CC2(C1)CC(C(=O)O)C2)c1csc2ccn(Cc3ccc4c(ccn4Cc4ccccc4)c3)c12` (stereo not shown) [Example 103, 6-(4-((1-benzyl-IH-indol-5-yl)methyl)-4H-thieno[3,2-b]pyrrole-3-carboxamido)spiro[3.3]heptane-2-carboxylic acid]: the results for the IC50 in assay [1] and in assay [2] were > 10000 nM and < 500 nM, respectively.
`O=C(NC1CC2(C1)CC(C(=O)O)C2)c1csc2ccn(Cc3ccc(-c4ccccn4)cc3)c12` (stereo not shown) [Example 104, 6-(4-(4-(pyridin-2-yl)benzyl)-4H-thieno[3,2-b]pyrrole-3-carboxamido)spiro[3.3]heptane-2-carboxylic acid]: the IC50 in assay [1] was 5000 to 10000 nM; in assay [2], < 500 nM.
As to `O=C(NC1CC2(C1)CC(C(=O)O)C2)c1csc2ccn(Cc3ccc(-c4ccccc4)nc3)c12` (stereo not shown) [Example 105, 6-(4-((6-phenylpyridin-3-yl)methyl)-4H-thieno[3,2-b]pyrrole-3-carboxamido)spiro[3.3]heptane-2-carboxylic acid], the IC50 in assay [1] was 500 to 5000 nM; in assay [2] it was < 500 nM.
On the same counts, the results for `O=C(NC1CC2(C1)CC(C(=O)O)C2)c1csc2ccn(Cc3ccc(-c4ccncc4)cc3)c12` (stereo not shown) [Example 106, 6-(4-(4-(pyridin-4-yl)benzyl)-4H-thieno[3,2-b]pyrrole-3-carboxamido)spiro[3.3]heptane-2-carboxylic acid] are 5000 to 10000 nM and < 500 nM.
On the same counts, the results for `O=C(NC1CC2(C1)CC(C(=O)O)C2)c1csc2ccn(Cc3ccc(-n4cccn4)cc3)c12` (stereo not shown) [Example 107, 6-(4-(4-(1H-pyrazol-1-yl)benzyl)-4H-thieno[3,2-b]pyrrole-3-carboxamido)spiro[3.3]heptane-2-carboxylic acid] are > 10000 nM and 500 to 5000 nM.
